In ChEMBL document CHEMBL1909046, “DrugMatrix in vitro pharmacology data”:

Legend:
Adenosine receptor A2a = Adenosine receptor A2a (Homo sapiens, UniProt P29274); assay: DRUGMATRIX: Adenosine A2A radioligand binding (ligand: […]); assay type: cell membranes, HEK293, Membrane; conditions: hek293; Not Active = under 50% inhibition at 10 µM
Caspase-1 = target: T1, Caspase-1 (Homo sapiens, UniProt P29466); design: species or system Escherichia coli;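 also: Caspase-1 enzyme inhibition assay with a peptide substrate; in other assays of this panel Not Active means under 50% inhibition at 10 µM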
T1 sequence (P29466 whole entry): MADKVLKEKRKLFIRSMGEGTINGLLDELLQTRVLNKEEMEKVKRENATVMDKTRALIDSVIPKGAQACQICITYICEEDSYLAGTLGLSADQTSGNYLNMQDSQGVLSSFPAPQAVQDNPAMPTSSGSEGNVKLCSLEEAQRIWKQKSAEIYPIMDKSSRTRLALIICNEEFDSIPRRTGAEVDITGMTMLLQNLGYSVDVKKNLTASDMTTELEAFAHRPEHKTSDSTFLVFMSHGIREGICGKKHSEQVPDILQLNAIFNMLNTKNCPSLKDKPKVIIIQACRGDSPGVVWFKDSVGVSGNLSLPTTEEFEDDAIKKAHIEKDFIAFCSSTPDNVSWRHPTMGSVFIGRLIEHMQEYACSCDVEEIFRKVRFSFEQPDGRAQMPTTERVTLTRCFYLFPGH

[1] = target: Kappa-type opioid receptor (Homo sapiens, UniProt P41145); assay: DRUGMATRIX: Opiate kappa (OP2, KOP) radioligand binding (ligand: [3H] Diprenorphine); assay type: cell membranes, HEK293, Membrane; conditions: hek293; Not Active = under 50% inhibition at 10 µM
Chain of Kappa-type opioid receptor (P41145 whole entry): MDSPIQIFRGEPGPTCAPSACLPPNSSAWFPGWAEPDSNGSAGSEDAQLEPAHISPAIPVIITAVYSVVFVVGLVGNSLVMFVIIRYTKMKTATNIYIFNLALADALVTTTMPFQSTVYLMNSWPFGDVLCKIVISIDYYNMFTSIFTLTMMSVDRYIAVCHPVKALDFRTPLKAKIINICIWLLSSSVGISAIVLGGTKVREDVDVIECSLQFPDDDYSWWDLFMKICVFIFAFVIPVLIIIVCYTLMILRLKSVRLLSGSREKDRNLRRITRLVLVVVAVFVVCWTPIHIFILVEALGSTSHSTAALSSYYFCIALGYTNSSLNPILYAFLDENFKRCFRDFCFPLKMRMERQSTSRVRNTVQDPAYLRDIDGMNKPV

Glycine receptor = Glycine receptor (Rattus norvegicus, UniProt P22771+P24524+P07727+P20781); assay type: cell membranes, Wistar, Spinal cord, Membrane; also: in other assays of this panel Not Active means under 50% inhibition at 10 µM
[2] = target: T2, Receptor-type tyrosine-protein phosphatase C (Homo sapiens, UniProt P08575); design: species or system Escherichia coli;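 also: inhibition of CD45 enzyme activity measured using DiFMUP as substrate; in other assays of this panel Not Active means under 50% inhibition at 10 µM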
T2 sequence (P08575 whole entry): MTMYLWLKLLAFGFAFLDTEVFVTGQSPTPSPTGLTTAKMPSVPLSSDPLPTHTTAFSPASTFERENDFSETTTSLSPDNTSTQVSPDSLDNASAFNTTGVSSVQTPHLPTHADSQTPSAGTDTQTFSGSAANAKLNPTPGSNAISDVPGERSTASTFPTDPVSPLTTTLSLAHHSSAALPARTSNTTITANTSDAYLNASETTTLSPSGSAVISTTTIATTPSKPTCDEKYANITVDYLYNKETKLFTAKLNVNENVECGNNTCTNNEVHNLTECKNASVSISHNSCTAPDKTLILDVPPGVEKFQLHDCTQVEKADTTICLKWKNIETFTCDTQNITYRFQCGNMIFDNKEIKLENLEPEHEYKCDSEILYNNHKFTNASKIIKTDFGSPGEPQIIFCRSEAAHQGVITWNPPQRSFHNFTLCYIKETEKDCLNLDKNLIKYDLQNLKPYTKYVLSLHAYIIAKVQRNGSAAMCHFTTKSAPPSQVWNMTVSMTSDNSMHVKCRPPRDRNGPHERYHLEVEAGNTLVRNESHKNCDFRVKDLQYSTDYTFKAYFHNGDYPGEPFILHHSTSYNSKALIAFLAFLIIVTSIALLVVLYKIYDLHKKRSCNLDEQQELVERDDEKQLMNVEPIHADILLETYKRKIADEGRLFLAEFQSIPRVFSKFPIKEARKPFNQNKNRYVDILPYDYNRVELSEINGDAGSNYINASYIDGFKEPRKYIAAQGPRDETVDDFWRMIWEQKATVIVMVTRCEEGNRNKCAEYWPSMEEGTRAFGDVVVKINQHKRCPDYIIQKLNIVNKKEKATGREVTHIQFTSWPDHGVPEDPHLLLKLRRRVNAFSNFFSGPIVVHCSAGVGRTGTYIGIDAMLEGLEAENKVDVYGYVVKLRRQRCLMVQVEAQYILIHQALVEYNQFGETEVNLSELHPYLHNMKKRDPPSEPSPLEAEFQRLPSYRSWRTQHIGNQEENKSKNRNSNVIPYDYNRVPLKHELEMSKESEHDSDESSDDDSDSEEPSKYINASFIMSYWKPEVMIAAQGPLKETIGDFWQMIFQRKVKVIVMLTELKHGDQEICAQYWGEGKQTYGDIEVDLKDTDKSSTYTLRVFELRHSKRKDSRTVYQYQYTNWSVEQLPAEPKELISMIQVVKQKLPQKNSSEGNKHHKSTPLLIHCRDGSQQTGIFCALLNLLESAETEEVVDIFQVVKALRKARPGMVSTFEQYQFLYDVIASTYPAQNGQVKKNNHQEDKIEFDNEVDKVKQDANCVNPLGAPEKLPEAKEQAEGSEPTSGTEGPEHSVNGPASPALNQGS

Chain of Adenosine receptor A2a (P29274 whole entry): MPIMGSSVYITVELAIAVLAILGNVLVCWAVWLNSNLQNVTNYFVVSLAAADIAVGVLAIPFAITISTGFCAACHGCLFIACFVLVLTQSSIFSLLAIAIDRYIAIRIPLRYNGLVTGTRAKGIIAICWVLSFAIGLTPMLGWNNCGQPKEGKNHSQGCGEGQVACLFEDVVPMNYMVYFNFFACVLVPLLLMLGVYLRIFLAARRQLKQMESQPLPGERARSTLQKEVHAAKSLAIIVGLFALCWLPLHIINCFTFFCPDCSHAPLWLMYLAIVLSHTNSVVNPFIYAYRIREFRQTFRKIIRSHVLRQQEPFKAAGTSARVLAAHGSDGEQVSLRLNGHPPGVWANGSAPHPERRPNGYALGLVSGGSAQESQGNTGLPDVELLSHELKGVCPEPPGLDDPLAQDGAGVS

Oc1ccccc1 [PHENOL]
Not Active: IC50 (Adenosine receptor A2a) | IC50 (Caspase-1) | IC50 [1] | IC50 (Glycine receptor) | IC50 [2]

Oc1ncnc2[nH]ncc12 [ALLOPURINOL]
Not Active: IC50 (Adenosine receptor A2a) | IC50 (Caspase-1) | IC50 [1] | IC50 (Glycine receptor) | IC50 [2]

COC(=O)Nc1nc2ccc(Sc3ccccc3)cc2[nH]1 [FENBENDAZOLE]
Not Active: IC50 (Adenosine receptor A2a) | IC50 (Caspase-1) | IC50 [1] | IC50 (Glycine receptor) | IC50 [2]

C[C@@H]1[C@H](O)[C@@H](C)/C=C/C=C/C=C/C=C/C=C/C=C/C=C/[C@H](O[C@@H]2O[C@H](C)[C@@H](O)[C@H](N)[C@@H]2O)C[C@@H]2O[C@](O)(C[C@@H](O)C[C@@H](O)[C@H](O)CC[C@@H](O)C[C@@H](O)CC(=O)O[C@H]1C)C[C@H](O)[C@H]2C(=O)O [AMPHOTERICIN B]
Not Active: IC50 (Adenosine receptor A2a) | IC50 (Caspase-1) | IC50 [1] | IC50 (Glycine receptor) | IC50 [2]

CCO [ALCOHOL]
Not Active: IC50 (Adenosine receptor A2a) | IC50 (Caspase-1) | IC50 [1] | IC50 (Glycine receptor) | IC50 [2]

COc1cc(/C=C/C(=O)O)ccc1O [FERULATE]
Not Active: IC50 (Adenosine receptor A2a) | IC50 (Caspase-1) | IC50 [1] | IC50 (Glycine receptor) | IC50 [2]

CNC[C@H](O)c1ccc(O)c(O)c1 [EPINEPHRINE]
Not Active: IC50 (Adenosine receptor A2a) | IC50 (Caspase-1) | IC50 [1] | IC50 (Glycine receptor) | IC50 [2]

C=CCO [ALLYL ALCOHOL]
Not Active: IC50 (Adenosine receptor A2a) | IC50 (Caspase-1) | IC50 (Glycine receptor) | IC50 [2]

POVIDONE
Not Active: IC50 (Adenosine receptor A2a) | Ki (Adenosine receptor A2a) | IC50 (Caspase-1) | Ki (Caspase-1) | IC50 (Glycine receptor) | Ki (Glycine receptor) | IC50 [2] | Ki [2]

CHROMIC CHLORIDE
Not Active: IC50 (Adenosine receptor A2a) | Ki (Adenosine receptor A2a) | IC50 (Caspase-1) | Ki (Caspase-1) | IC50 (Glycine receptor) | Ki (Glycine receptor) | IC50 [2] | Ki [2]

O=C(O)CNCP(=O)(O)O [GLYPHOSATE]
Not Active: IC50 (Adenosine receptor A2a) | IC50 (Caspase-1) | IC50 (Glycine receptor) | IC50 [2]

CARBOXYMETHYLCELLULOSE
Not Active: IC50 (Adenosine receptor A2a) | Ki (Adenosine receptor A2a) | IC50 (Caspase-1) | Ki (Caspase-1) | IC50 (Glycine receptor) | Ki (Glycine receptor) | IC50 [2] | Ki [2]

CCN1C[C@]2(COC)[C@H](O)C[C@H](OC)[C@@]34[C@@H]5C[C@@]6(O)[C@H](OC(=O)c7ccccc7)[C@@H]5[C@@](OC(C)=O)([C@@H]([C@H](OC)[C@H]23)[C@@H]14)[C@@H](O)[C@@H]6OC [ACONITINE]
Not Active: IC50 (Adenosine receptor A2a) | IC50 (Caspase-1) | IC50 (Glycine receptor) | IC50 [2]

C=C(Cl)Cl [1,1-DICHLOROETHENE]
Not Active: IC50 (Adenosine receptor A2a) | IC50 (Caspase-1) | IC50 (Glycine receptor) | IC50 [2]

Nc1ccc(Cc2ccc(N)cc2)cc1
Not Active: IC50 (Adenosine receptor A2a) | IC50 (Caspase-1) | IC50 (Glycine receptor) | IC50 [2]

COPPER(II) OXIDE
Not Active: IC50 (Adenosine receptor A2a) | Ki (Adenosine receptor A2a) | IC50 (Caspase-1) | Ki (Caspase-1) | IC50 (Glycine receptor) | Ki (Glycine receptor) | IC50 [2] | Ki [2]

COc1cc([C@@H]2c3cc4c(cc3[C@H](O)[C@H]3COC(=O)[C@H]23)OCO4)cc(OC)c1OC [PODOFILOX]
Not Active: IC50 (Adenosine receptor A2a) | IC50 (Caspase-1) | IC50 (Glycine receptor) | IC50 [2]

ClC1=C(Cl)[C@]2(Cl)[C@@H]3[C@@H]4C[C@@H]([C@H]5O[C@@H]45)[C@@H]3[C@@]1(Cl)C2(Cl)Cl [DIELDRIN]
Not Active: IC50 (Adenosine receptor A2a) | IC50 (Caspase-1) | IC50 (Glycine receptor) | IC50 [2]

C=CCN1CC[C@]23c4c5ccc(O)c4O[C@H]2/C(=N/N=C2\CC[C@@]4(O)[C@H]6Cc7ccc(O)c8c7[C@@]4(CCN6CC=C)[C@H]2O8)CC[C@@]3(O)[C@H]1C5 [NALOXONAZINE]
Not Active: IC50 (Adenosine receptor A2a) | IC50 (Caspase-1) | IC50 (Glycine receptor) | IC50 [2]
